≈ marks a conversion by molar mass, not a printed value.
Legend:
KB = test: Cytotoxicity against human KB cells; format: functional, cell-based
L1210 = test: Cytotoxicity against mouse L1210 cells; format: functional, cell-based

| Compound | IC50 (KB) [ng/mL] | IC50 (L1210) [ng/mL] |
| --- | --- | --- |
| COC(CC1OC(=O)CC(O)CC(O)CC(=O)C(C)C(OC)c2coc(n2)-c2coc(n2)-c2coc(n2)/C=C/CCC1C)C(C)CCC(=O)C(C)C(C/C=C/N(C)C=O)OC (stereo unspecified) [JASPISAMIDE A] | 15 (≈ 17.5 nM) | < 1 |
| COC(CC1OC(=O)CC(O)C/C=C/C(=O)C(C)C(OC)c2coc(n2)-c2coc(n2)-c2coc(n2)/C=C/CC(O)C1C)C(C)CCC(=O)C(C)C(C/C=C/N(C)C=O)OC (stereo unspecified) [JASPISAMIDE B] | 6 (≈ 7.03 nM) | < 1 |
| COC(CC1OC(=O)CC(O)C/C=C/C(=O)C(C)C(OC)c2coc(n2)-c2coc(n2)-c2coc(n2)/C=C/CCC1C)C(C)CCC(=O)C(C)C(OC)C(C)/C=C/N(C)C=O (stereo unspecified) [JASPISAMIDE C] | 13 (≈ 15.3 nM) | < 1 |
